From patent US11498899B2, “Nitrone herbicides” (FMC Corporation, priority 2016, dated 2022)

Legend:
[1] = tested on: barnyardgrass (Echinochloa crus-galli); assay: Test A preemergence, visual injury rating 0-100 (0 no effect, 100 complete control); type: in vivo; details: for Barnyardgrass plant response rating (0 to 100 scale): 125 g ai/ha
From the text: (§1) Seeds of plant species selected from barnyardgrass (Echinochloa crus-galli), kochia (Kochia scoparia), ragweed (common ragweed, Ambrosia elatior), ryegrass, Italian (Italian ryegrass, Lolium multiflorum), foxtail, giant (giant foxtail, Setaria faberii), foxtail, green (green foxtail, Setaria viridis), and pigweed (Amaranthus retroflexus) were planted into a blend of loam soil and sand and treated preemergence with a directed soil spray using test chemicals formulated in a non-phytotoxic solvent mixture which included a surfactant.
(§2) At the same time, plants selected from these weed species and also wheat (Triticum aestivum), corn (Zea mays), blackgrass (Alopecurus myosuroides), and galium (catchweed bedstraw, Galium aparine) were planted in pots containing the same blend of loam soil and sand and treated with postemergence applications of test chemicals formulated in the same manner. Plants ranged in height from 2 to 10 cm and were in the one- to two-leaf stage for the postemergence treatment. Treated plants and untreated controls were maintained in a greenhouse for approximately 10 days, after which time all treated plants were compared to untreated controls and visually evaluated for injury. […] A dash (-) response means no test result.

[2] = tested on: foxtail, giant (giant foxtail, Setaria faberii); assay: Test A preemergence, visual injury rating 0-100; type: in vivo; details: for Foxtail, Giant plant response rating (0 to 100 scale): 125 g ai/ha
From the text: as §1, §2

kochia (Kochia scoparia) [3] = assay: Test A preemergence, visual injury rating 0-100; type: in vivo; details: for Kochia plant response rating (0 to 100 scale): 125 g ai/ha
From the text: as §1, §2

[4] = tested on: pigweed (Amaranthus retroflexus); assay: Test A preemergence, visual injury rating 0-100; type: in vivo; details: for Pigweed plant response rating (0 to 100 scale): 125 g ai/ha
From the text: as §1, §2

[5] = tested on: ragweed (common ragweed, Ambrosia elatior); assay: Test A preemergence, visual injury rating 0-100; type: in vivo; details: for Ragweed plant response rating (0 to 100 scale): 125 g ai/ha
From the text: as §1, §2

[6] = tested on: ryegrass, Italian (Italian ryegrass, Lolium multiflorum); assay: Test A preemergence, visual injury rating 0-100; type: in vivo; details: for Ryegrass, Italian plant response rating (0 to 100 scale): 125 g ai/ha
From the text: as §1, §2

[7] = tested on: barnyardgrass (Echinochloa crus-galli); assay: Test A postemergence, visual injury rating 0-100; type: in vivo; details: 0 to 100 scale
From the text: as §1, §2

[8] = tested on: blackgrass (Alopecurus myosuroides); assay: Test A postemergence, visual injury rating 0-100; type: in vivo; details: 0 to 100 scale
From the text: as §1, §2

corn (Zea mays) = assay: Test A postemergence, visual injury rating 0-100; type: in vivo; details: 0 to 100 scale
From the text: as §1, §2

[9] = tested on: foxtail, giant (giant foxtail, Setaria faberii); assay: Test A postemergence, visual injury rating 0-100; type: in vivo; details: 0 to 100 scale
From the text: as §1, §2

[10] = tested on: galium (catchweed bedstraw, Galium aparine); assay: Test A postemergence, visual injury rating 0-100; type: in vivo; details: 0 to 100 scale
From the text: as §1, §2

kochia (Kochia scoparia) [11] = assay: Test A postemergence, visual injury rating 0-100; type: in vivo; details: 0 to 100 scale
From the text: as §1, §2

[12] = tested on: pigweed (Amaranthus retroflexus); assay: Test A postemergence, visual injury rating 0-100; type: in vivo; details: 0 to 100 scale
From the text: as §1, §2

[13] = tested on: ragweed (common ragweed, Ambrosia elatior); assay: Test A postemergence, visual injury rating 0-100; type: in vivo; details: 0 to 100 scale
From the text: as §1, §2

[14] = tested on: ryegrass, Italian (Italian ryegrass, Lolium multiflorum); assay: Test A postemergence, visual injury rating 0-100; type: in vivo; details: 0 to 100 scale
From the text: as §1, §2

[15] = tested on: wheat (Triticum aestivum); assay: Test A postemergence, visual injury rating 0-100; type: in vivo; details: 0 to 100 scale
From the text: as §1, §2

[16] = tested on: ducksalad (Heteranthera limosa); assay: Test B flooded paddy test, visual rating 0-100; details: Flood, 250 g ai/ha, applied to paddy water, rated after 13 to 15 days
[17] = tested on: barnyardgrass (Echinochloa crus-galli); assay: Test B flooded paddy test, visual rating 0-100; details: Flood, 250 g ai/ha, applied to paddy water, rated after 13 to 15 days
rice (Oryza sativa) = assay: Test B flooded paddy test, visual rating 0-100 (0 no effect, 100 complete control); details: Flood, 250 g ai/ha, applied to paddy water, rated after 13 to 15 days
[18] = 31 g ai/ha, 0 to 100 scale (0 no effect, 100 complete control), approx. 10 days

SMILES	Barnyardgrass plant response rating (0 to 100 scale) [1]	Foxtail, Giant plant response rating (0 to 100 scale) [2]	Kochia plant response rating (0 to 100 scale) (kochia (Kochia scoparia) [3])	Pigweed plant response rating (0 to 100 scale) [4]	Ragweed plant response rating (0 to 100 scale) [5]	Ryegrass, Italian plant response rating (0 to 100 scale) [6]	Barnyardgrass plant response rating ([7]; 125 g ai/ha)	Blackgrass plant response rating ([8]; 125 g ai/ha)	Corn plant response rating (corn (Zea mays); 125 g ai/ha)	Foxtail, Giant plant response rating ([9]; 125 g ai/ha)	Galium plant response rating ([10]; 125 g ai/ha)	Kochia plant response rating (kochia (Kochia scoparia) [11]; 125 g ai/ha)	Pigweed plant response rating ([12]; 125 g ai/ha)	Ragweed plant response rating ([13]; 125 g ai/ha)	Ryegrass, Italian plant response rating ([14]; 125 g ai/ha)	Wheat plant response rating ([15]; 125 g ai/ha)	Ducksalad plant response rating (0 to 100 scale) [16]	Barnyardgrass plant response rating (0 to 100 scale) [17]	Rice plant response rating (0 to 100 scale) (rice (Oryza sativa))	Barnyardgrass plant response rating ([1]; 500 g ai/ha, 0 to 100 scale)	also measured
CC1=[N+]([O-])C(C(=O)Nc2cccc(F)c2F)C(c2ccc(F)cc2)C1 (racemic) [Compound 9]	90	90	0	30	90	0	40	0	0	50	30	0	20	0	0	0	100	85	0	–	Barnyardgrass plant response rating [1, 18]: 30; Foxtail, Giant plant response rating [2, 18]: 70; Kochia plant response rating (kochia (Kochia scoparia) [3]; [18]): 0; Pigweed plant response rating [4, 18]: 0; Ragweed plant response rating [5, 18]: 0; Ryegrass, Italian plant response rating [6, 18]: 0; Barnyardgrass plant response rating ([7]; 31 g ai/ha): 10; Blackgrass plant response rating ([8]; 31 g ai/ha): 0; Corn plant response rating (corn (Zea mays); 31 g ai/ha): 0; Foxtail, Giant plant response rating ([9]; 31 g ai/ha): 20; Galium plant response rating ([10]; 31 g ai/ha): 0; Kochia plant response rating (kochia (Kochia scoparia) [11]; 31 g ai/ha): 0; Pigweed plant response rating ([12]; 31 g ai/ha): 0; Ragweed plant response rating ([13]; 31 g ai/ha): 0; Ryegrass, Italian plant response rating ([14]; 31 g ai/ha): 0; Wheat plant response rating ([15]; 31 g ai/ha): 0
CC1=[N+]([O-])C(C(=O)Nc2cccc(F)c2F)C(c2ccc(F)c(F)c2)C1 (racemic) [Compound 10]	90	80	0	50	0	0	40	20	0	60	50	0	0	0	0	0	100	85	0	90	Foxtail, Giant plant response rating ([2]; 500 g ai/ha, 0 to 100 scale): 90; Kochia plant response rating (kochia (Kochia scoparia) [3]; 500 g ai/ha, 0 to 100 scale): 60; Pigweed plant response rating ([4]; 500 g ai/ha, 0 to 100 scale): 60; Ragweed plant response rating ([5]; 500 g ai/ha, 0 to 100 scale): 90; Ryegrass, Italian plant response rating ([6]; 500 g ai/ha, 0 to 100 scale): 60; Barnyardgrass plant response rating ([7]; 500 g ai/ha): 90; Blackgrass plant response rating ([8]; 500 g ai/ha): 30; Corn plant response rating (corn (Zea mays); 500 g ai/ha): 50; Foxtail, Giant plant response rating ([9]; 500 g ai/ha): 90; Galium plant response rating ([10]; 500 g ai/ha): 60; Kochia plant response rating (kochia (Kochia scoparia) [11]; 500 g ai/ha): 20; Pigweed plant response rating ([12]; 500 g ai/ha): 20; Ragweed plant response rating ([13]; 500 g ai/ha): 20; Ryegrass, Italian plant response rating ([14]; 500 g ai/ha): 0; Wheat plant response rating ([15]; 500 g ai/ha): 70
CC1=[N+]([O-])C(C(=O)Nc2cccc(F)c2F)C(c2ccccc2C)C1 (racemic) [Compound 11]	80	90	0	0	40	0	40	0	0	30	0	0	0	0	0	0	100	90	15	100	Foxtail, Giant plant response rating ([2]; 500 g ai/ha, 0 to 100 scale): 100; Kochia plant response rating (kochia (Kochia scoparia) [3]; 500 g ai/ha, 0 to 100 scale): 0; Pigweed plant response rating ([4]; 500 g ai/ha, 0 to 100 scale): 0; Ragweed plant response rating ([5]; 500 g ai/ha, 0 to 100 scale): 30; Ryegrass, Italian plant response rating ([6]; 500 g ai/ha, 0 to 100 scale): 0; Barnyardgrass plant response rating ([7]; 500 g ai/ha): 90; Blackgrass plant response rating ([8]; 500 g ai/ha): 0; Corn plant response rating (corn (Zea mays); 500 g ai/ha): 0; Foxtail, Giant plant response rating ([9]; 500 g ai/ha): 90; Galium plant response rating ([10]; 500 g ai/ha): 20; Kochia plant response rating (kochia (Kochia scoparia) [11]; 500 g ai/ha): 0; Pigweed plant response rating ([12]; 500 g ai/ha): 0; Ragweed plant response rating ([13]; 500 g ai/ha): 0; Ryegrass, Italian plant response rating ([14]; 500 g ai/ha): 0; Wheat plant response rating ([15]; 500 g ai/ha): 20
CC1=[N+]([O-])C(C(=O)Nc2cccc(F)c2F)C(c2cccc(C(C)C)c2)C1 (racemic) [Compound 12]	100	100	0	0	0	0	10	0	50	90	50	0	0	0	0	20	80	70	0	100	Foxtail, Giant plant response rating ([2]; 500 g ai/ha, 0 to 100 scale): 100; Kochia plant response rating (kochia (Kochia scoparia) [3]; 500 g ai/ha, 0 to 100 scale): 50; Pigweed plant response rating ([4]; 500 g ai/ha, 0 to 100 scale): 30; Ragweed plant response rating ([5]; 500 g ai/ha, 0 to 100 scale): 90; Ryegrass, Italian plant response rating ([6]; 500 g ai/ha, 0 to 100 scale): 90; Barnyardgrass plant response rating ([7]; 500 g ai/ha): 90; Blackgrass plant response rating ([8]; 500 g ai/ha): 50; Corn plant response rating (corn (Zea mays); 500 g ai/ha): 90; Foxtail, Giant plant response rating ([9]; 500 g ai/ha): 90; Galium plant response rating ([10]; 500 g ai/ha): 70; Kochia plant response rating (kochia (Kochia scoparia) [11]; 500 g ai/ha): 30; Pigweed plant response rating ([12]; 500 g ai/ha): 20; Ragweed plant response rating ([13]; 500 g ai/ha): 40; Ryegrass, Italian plant response rating ([14]; 500 g ai/ha): 50; Wheat plant response rating ([15]; 500 g ai/ha): 70
